Reference: patent US20030212144A1, “Method for inducing an estrous cycle and pregnancy in a female mammal” (priority 2003, published 2003)
No end group written: not given here.

Tests used:
old acyclic rats = details: cited from earlier work
[1] = tested on: release of serotonin (5-HT) from the hypothalamus; assay: 5-HT release and content, static in vitro incubation of hypothalami, HPLC-EC; format: cell-based, Sprague-Dawley rats; details: for 5-HT release: second incubation period, control 41.0±21; for content of 5-HT at the end of the experiment: p<0.05
Protocol: (§1) Four- to six-month old male Sprague-Dawley rats were obtained from Amitech (Omaha, Nebr.). These rats were housed in groups in air-conditioned (23±2° C.) and light controlled (lights on from 0700-1900 hours) animal rooms. They were provided rat chow and water ad libitum.
(§2) On the day of the experiment, the rats were sacrificed between 1200-1300 hrs. The brains were removed immediately and the hypothalami were dissected out using the following boundaries: the posterior part of the optic chiasmas the anterior limit, the anterior part of the mammillary bodies as the posterior limit, and the lateral hypothalamic sulci as the lateral limits (Palazzolo et al., Life Sci. 47: 2105-2109 (1990); Palazzolo et al., Life Sci. 51: 1797-1802 (1992)).
(§3) The hypothalami were weighed and divided into two halves along the sagittal plane and placed in a 12×75 mm glass tube containing 300 μl of Krebs-Ringer Henseleit (KRH) solution. The hypothalami were incubated in a static in vitro incubation system as described previously (Palazzolo et al., Life Sci. 47: 2105-2109 (1990); Palazzolo et al., Life Sci. 51: 1797-1802 (1992)). Briefly, the incubation system consisted of a plexiglass water bath, a magnetic circulator fin, and a thermostat coil. The bath was filled with distilled water and the thermostat was switched on at least an hour before the perfusion. The temperature in the water bath was maintained at 37° C. The magnetically controlled circulator fins stirred the water constantly to maintain a uniform temperature throughout the water bath. The incubation medium, KRH, consisted of 117 mM NaCl, 4.7 mM KCl, 1.2 mM MgSO4, 1.2 mM KH2PO4, 2.5 mM CaCl2, 24.8 mM NaHCO3, 11.1 mM glucose, 0.1 mg/ml ascorbic acid in 1 L of pyrogen free water. During the experiment, the incubation medium was supplied a mixture of 95% oxygen and 5% carbon dioxide constantly through gas inlet lines at a slow and steady rate to avoid turbulence. To stabilize the release of monoamines, each hypothalamus was preincubated in KRH for 60 min. Following this, the hypothalami were incubated for four 60-min periods as described below.
(§4) During the first incubation period, the hypothalami were incubated in KRH for 60 min to measure the basal release of monoamines and their metabolites. During the second incubation period, the hypothalami were incubated in KRH containing 0, 0.1 mM, 1.0 mM, or 10 mM of deprenyl. After this, the hypothalami were rinsed and incubated in KRH alone (without deprenyl) during the third incubation period to measure the residual effects, if any, from the pervious incubation period. In the final incubation period, the hypothalami were incubated with high K^+ KRH, which, had the same composition as the KRH except that it contained 60 mM KCl and 57 mM NaCl, to check the viability of the tissue. Hypothalami were rinsed with KRH in between incubations. After each incubation period, incubation medium was removed and 0.1 M HClO4 was added to it at the ratio of 25:1 (v/v) and was stored at −70° C. until analysis for neurotransmitters by HPLC-EC. At the end of the treatment period, the hypothalami were transferred to microsample vials containing 0.1 M HClO4 and were stored at −70° C. At the time of HPLC analysis, the hypothalami were homogenized in KRH and centrifuged at 1000 RPM for 15 min and the supernatant was used for the measurement of neurotransmitters.
(§5) The HPLC-EC system has been described before (Palazzolo et al., Life Sci. 47: 2105-2109 (1990); Palazzolo et al., Life Sci. 51: 1797-1802 (1992); ThyagaRajan, S.; Meites et al., Endocrinol. 136: 1103-1110 (1995)). Briefly, it consisted of an LC-4B electrochemical detector (Bioanalytical Systems, West Lafayette, Ind.); a phase II, 5 μm ODS reverse phase, C-18 column; a glassy carbon electrode, a C-R6A Chromatopac integrator, a CTO-6A column oven, and an LC-6A pump (Shimadzu, Columbia, Md.). […]

serum prolactin = details: young and old rats; cited from earlier work
[2] = tested on: retired racing female greyhounds; assay: induction of heat in retired racing female greyhounds previously treated with testosterone; format: in vivo, greyhound (canine); details: oral in saline, seven animals, saline control 22%
Protocol: Retired racing female greyhounds that were previously treated with testosterone were used in the experiments. Nine animals were used in the control group, and seven animals each were used in the low dose (0.5 mg/kg body weight deprenyl) and the high dose (0.75 mg/kg body weight) groups. Control animals were treated with oral saline solution. Experimental, animals were treated with one of the two doses of deprenyl orally dissolved in saline.

old male rats = details: cited from earlier work
[3] = tested on: carcinogen-induced mammary tumor; details: rats; cited from earlier work
[4] = tested on: release of norepinephrine (NE) from the hypothalamus; assay: norepinephrine release and content, static in vitro incubation of hypothalami, HPLC-EC; format: cell-based, Sprague-Dawley rats; details: for content of NE in the hypothalami at the end of the experiment: control 1104±588
Protocol: as §1, §2, §3, §4, §5

[5] = tested on: release of dihydroxyphenylacetic acid (DOPAC) from the hypothalamus; assay: DOPAC release and content, static in vitro incubation of hypothalami, HPLC-EC; format: cell-based, Sprague-Dawley rats; details: for concentration of DOPAC in the hypothalamus at the end of the experiment: control 416±176; for DOPAC release: second incubation period; for DOPAC release after removal of deprenyl from the medium: third incubation period
Protocol: as §1, §2, §3, §4, §5

[6] = tested on: release of 5-hydroxyindoleacetic acid (5-HIAA) from the hypothalamus; assay: 5-HIAA release and content, static in vitro incubation of hypothalami, HPLC-EC; format: cell-based, Sprague-Dawley rats
Protocol: as §1, §2
The hypothalami were weighed and divided into two halves along the sagittal plane and placed in a 12×75 mm glass tube containing 300 μl of Krebs-Ringer Henseleit (KRH) solution. The hypothalami were incubated in a static in vitro incubation system as described previously (Palazzolo et al., Life Sci. 47: 2105-2109 (1990); Palazzolo et al., Life Sci. 51: 1797-1802 (1992)). Briefly, the incubation system consisted of a plexiglass water bath, a magnetic circulator fin, and a thermostat coil. The bath was filled with distilled water and the thermostat was switched on at least an hour before the perfusion. […]

[7] = tested on: release of dopamine (DA) from the hypothalamus; assay: dopamine release and content, static in vitro incubation of hypothalami, HPLC-EC; format: cell-based, Sprague-Dawley rats; details: for DA release after removal of deprenyl: third incubation period; for DA content of the hypothalami at the end of the experiment: p<0.05
Protocol: as §1, §2, §3, §4, §5

greyhound bitches = details: Bruyette et al., personal communication; cited from earlier work

Compound: CC(C)NNC(=O)c1ccncc1 [Iproniazid, 4-pyridinecarboxyylic acid, 2-(1-methylethyl)hydrazine]
- restoration of heat and the estrous cycle (old acyclic rats): reinstate the estrous cycle

Compound: N[C@@H](Cc1ccc(O)c(O)c1)C(=O)O [1-dopa]
- restoration of heat and the estrous cycle (old acyclic rats): restoration of heat and the estrous cycle

Compound: C#CCN(C)C(C)Cc1ccccc1 (stereo not drawn) [deprenyl, phenethylamine, N, alpha-dimethyl-N-2-propynyl]
- restoration of heat and the estrous cycle (old acyclic rats): restore heat and the estrous cycle
- 5-HT release ([1]; 0.1 mM deprenyl): 186.4±62
- 5-HT release on stimulation with high potassium KRH ([1]; 0.1 mM group): significant increase
- 5-HT release ([1]; 1 mM deprenyl): 438.4±85
- content of 5-HT at the end of the experiment ([1]; 1 mM group compared to the control group): significantly reduced
- 5-HT release ([1]; 10 mM deprenyl): 670.3±199
- content of 5-HT at the end of the experiment ([1]; 10 mM group compared to the control group): significantly reduced
- 5-HT release upon removal of deprenyl from the medium ([1]; third incubation period): declined rapidly
- serum prolactin concentrations (serum prolactin): decreases serum prolactin concentrations
- animals that came to heat ([2]; higher dose 0.75 mg/kg body weight): 86%
- animals that came to heat ([2]; low dose 0.5 mg/kg body weight): Fifty
- sexual activity (old male rats): increase sexual activity
- carcinogen-induced mammary tumor growth [3]: inhibits carcinogen-induced mammary tumor growth
- content of NE in the hypothalami at the end of the experiment ([4]; 0.1 mM deprenyl group): 743.3±179
- NE release (Mean±S.E.) ([4]; 0.1 mM deprenyl, second incubation period (KRH+DEP), pretreatment 196.9±43, increase not significant): 252.3±48 pg/mg hypothalamus
- NE release (Mean±S.E.) ([4]; 0.1 mM group, fourth period, high potassium KRH, p<0.05): 538.2±142 pg/mg hypothalamus
- NE release (Mean±S.E.) ([4]; 0.1 mM group, third incubation period (KRH alone after deprenyl)): 185.1±42 pg/mg hypothalamus
- content of NE in the hypothalami at the end of the experiment ([4]; 1 mM deprenyl group, p<0.05): 388.1±71
- NE release (Mean±S.E.) ([4]; 1 mM group, last period, high K+ KRH, p<0.05): 375.2±92 pg/mg hypothalamus
- NE release (Mean±S.E.) ([4]; 1 mM group, third incubation period (KRH alone)): 267.7±28 pg/mg hypothalamus
- content of NE in the hypothalami at the end of the experiment ([4]; 10 mM deprenyl group, p<0.05): 281.3±91
- NE release (Mean±S.E.) ([4]; 10 mM deprenyl, second incubation period, pretreatment 132.8±56, p<0.05): 799.9±141 pg/mg hypothalamus
- NE release (Mean±S.E.) ([4]; 10 mM group, high K+ KRH, not statistically significant): 222.4±57 pg/mg hypothalamus
- NE release (Mean±S.E.) ([4]; 10 mM group, third incubation period (KRH alone)): 159.8±41 pg/mg hypothalamus
- concentration of DOPAC in the hypothalamus at the end of the experiment ([5]; 0.1 mM deprenyl group): 290.0±110
- DOPAC release ([5]; 0.1 mM deprenyl): did not produce any change
- concentration of DOPAC in the hypothalamus at the end of the experiment ([5]; 1 mM deprenyl group, p<0.05): 86.8±34
- DOPAC release ([5]; 1 mM deprenyl, pretreatment 267.7±46, p<0.01): 139.6±19
- DOPAC release after removal of deprenyl from the medium ([5]; 1 mM group): remained low
- concentration of DOPAC in the hypothalamus at the end of the experiment ([5]; 10 mM deprenyl group, p<0.05): 34.3±16
- DOPAC release ([5]; 10 mM deprenyl, pretreatment 285.6±28, p<0.001): 68.9±20
- DOPAC release after removal of deprenyl from the medium ([5]; 10 mM group): remained low
- DOPAC release on stimulation with high potassium KRH ([5]; all the deprenyl-treated groups (0.1, 1, 10 mM)): did not produce any increase
- content of 5-HIAA in the hypothalami at the end of the experiment ([6]; deprenyl treated groups compared to the control group, P<0.05): significantly low
- release of 5-HIAA ([6]; hypothalami incubated with different doses of deprenyl (0.1, 1, 10 mM)): dose-dependant decrease
- DA release ([7]; 0.1 mM deprenyl, second incubation period, not significantly different from pretreatment): 125.1±49
- DA release ([7]; 0.1 mM group, high K+ KRH, significant increase): 393.1±109
- DA release after removal of deprenyl ([7]; 0.1 mM group): brought DA release to pretreatment levels
- DA release ([7]; 1 mM deprenyl, second incubation period, pretreatment 42.9±6): 154.8±59
- DA content of the hypothalami at the end of the experiment ([7]; 1 mM group compared to 0 mM group): significantly less
- DA release ([7]; 1 mM group, high K+ KRH, significant increase): 106.8±27
- DA release after removal of deprenyl ([7]; 1 mM group): brought DA release to pretreatment levels
- DA release ([7]; 10 mM deprenyl, second incubation period): 197.7±63
- DA content of the hypothalami at the end of the experiment ([7]; 10 mM group compared to 0 mM group): significantly less
- DA release ([7]; 10 mM group, high potassium KRH, not statistically significant from pretreatment): 85.3±40
- DA release after removal of deprenyl ([7]; 10 mM group): returned DA release to basal levels

Compound: GnRH: hypothalamic hormone called gonadotropin-releasing hormone (QHWSYGLRPG; ends and bridges not checked; UniProt P01148 24-33, looked up)
- induction of heat (greyhound bitches): unable to induce heat
